Measurements published in patent publication EP4663631A1, “POLYMORPH AS PROTEIN KINASE MEK INHIBITOR, AND PREPARATION METHOD THEREFOR AND USE THEREOF” (Shanghai Kechow Pharma, Inc., priority 2023, dated 2024).
Like-named read-outs stand apart in the source and are kept apart here.

System: SK-MEL-2 cells
Experiment: MTT proliferation inhibition, NRAS mutant melanoma cell line
Conditions: Homo sapiens, SK-MEL-2, 72 h
Procedure: All cells were provided by Beijing Cancer Hospital. Human melanoma cell line SK-MEL-2 (NRAS Q61R) was cultured with MEM supplemented with 10%FBS and penicillin streptomycin in an incubator at 37 °C and 5% carbon dioxide.
When the confluence of the cultured cells reached more than 80%, the adherent cells were digested with trypsin and the cell precipitate was collected by centrifugation, counted, and 90 µL of the cell suspension was seeded in a 96-well plate at the appropriate density. […] Each concentration was set up three multiple Wells, a total of 9 concentration points. The Wells added with the same volume of 5% DMSO were used as control, and the final concentration of DMSO was 0.5%. After 3 days of drug treatment, the cell viability was detected by MTT, and 10 µL MTT was added to each well and incubated in the incubator for another 4 hours. After the supernatant was discarded and 150 µL DMSO was added to dissolve the crystal, and the absorbance at 490 nm was detected by microplate reader. The above experiments were repeated three times. The dose-effect curve was made and IC50 was calculated by GraphPad Prism 8 software.

## Cn1cnc2c(F)c(Nc3ccc(Br)cc3F)c(C(=O)NOCCO)cc21 [MEK162]
read-out: IC5o(nM) 1st
  IC50: 74.8 nM
read-out: IC5o(nM) 2nd
  IC50: 68.3 nM
read-out: IC5o(nM) 3rd
  IC50: 222 nM
read-out: Mean value (nM)
  IC50: 122 nM
